Holding throughout (format): cell-based
One assay relates to HTT CJ mRNA. The experiment in a line: Gene panel canonical junction qPCR splicing assay, HTT. To be noted: Table 4, read-out: HTT IC50 (decrease in CJ mRNA levels). The method, then: (§1) Compounds described herein were used to modulate RNA transcript abundance in cells. The expression of a target mRNA was measured by detecting the formation of an exon-exon junction in the canonical transcript (CJ). A compound mediated exon-inclusion event was detected by observing an increase in formation of a new junction with an alternative exon (AJ). Real-time qPCR assays were used to detect these splicing switches and interrogate the potency of various compounds towards different target genes. A high-throughput real time quantitative PCR (RT-qPCR) assay was developed to measure these two isoforms of the mRNA (CJ and AJ) for an exemplary gene, HTT, together with a control housekeeping gene, GAPDH or GUSB or PPIA, used for normalization. Briefly, the A673 or K562 cell line was treated with various compounds described herein (e.g., compounds of Formula (I) or (II)). After treatment, the levels of the HTT mRNA targets were determined from each sample of cell lysate by cDNA synthesis followed by qPCR. The data analysis was performed by first determining the ΔCt vs the housekeeper gene. This ΔCt was then normalized against the DMSO control (ΔΔCt) and converted to RQ (relative quantification) using the 2^(−ΔΔCt) equation. The RQ were then converted to a percentage response by arbitrarily setting an assay window of 3.5 ΔCt for HTT-CJ and an assay window of 9 ΔCt for HTT-AJ. […] The percentage response was then fitted to the 4 parametric logistic equation to evaluate the concentration dependence of compound treatment. The increase in AJ mRNA is reported as AC50 (compound concentration having 50% response in AJ increase) while the decrease in CJ mRNA levels is reported as IC50 (compound concentration having 50% response in CJ decrease). Additional studies were carried out for a larger panel of genes using the protocol provided above. The junction between flanking upstream and downstream exons was used to design canonical junction qPCR assays. At least one of the forward primer, reverse primer or the CY5-labeled 5′ nuclease probe (with 3′ quencher such as ZEN/Iowa Black FQ) was designed to overlap with the exon junction to capture the CJ mRNA transcript. BLAST was used to confirm the specificity of the probeset and parameters such as melting temperature, GC content, amplicon size, and primer dimer formation are considered during their design. Data for the decrease in CJ mRNA levels for three exemplary genes (HTT, SMN2, and Target C) analyzed in this panel are reported as IC50 (compound concentration having 50% response in CJ decrease).

The subject of a further assay is Target C CJ mRNA. The assay can be described thus: Gene panel canonical junction qPCR splicing assay, Target C. To be noted: Table 4, read-out: Target C IC50 (decrease in CJ mRNA levels). The method, then:
as §1

The next assay relates to SMN2 CJ mRNA. The assay can be described thus: Gene panel canonical junction qPCR splicing assay, SMN2. To be noted: Table 4, read-out: SMN2 IC50 (decrease in CJ mRNA levels). The method, then: as §1
A further assay concerns HTT mRNA. The experiment in a line: Splicing assay (RT-qPCR) of HTT mRNA alternative junction (AJ) and canonical junction (CJ). The note with it: A673 or K562 cells, 24 hours; for IC50: decrease in CJ mRNA, read-out: HTT CJ IC50; for AC50: increase in AJ mRNA, read-out: HTT AJ AC50. The method, then: Compounds described herein were used to modulate RNA transcript abundance in cells. The expression of a target mRNA was measured by detecting the formation of an exon-exon junction in the canonical transcript (CJ). A compound mediated exon-inclusion event was detected by observing an increase in formation of a new junction with an alternative exon (AJ). Real-time qPCR assays were used to detect these splicing switches and interrogate the potency of various compounds towards different target genes. A high-throughput real time quantitative PCR (RT-qPCR) assay was developed to measure these two isoforms of the mRNA (CJ and AJ) for an exemplary gene, HTT, together with a control housekeeping gene, GAPDH or GUSB or PPIA, used for normalization. Briefly, the A673 or K562 cell line was treated with various compounds described herein (e.g., compounds of Formula (I) or (II)). After treatment, the levels of the HTT mRNA targets were determined from each sample of cell lysate by cDNA synthesis followed by qPCR.
Materials: • Cells-to-CT 1-step kit: ThermoFisher A25602, Cells-to-CT lysis reagent: ThermoFisher 4391851C, TagMan™ Fast Virus 1-Step Master Mix: ThermoFisher 4444436 • GAPDH: VIC-PL, ThermoFisher 4326317E (Assay: Hs99999905_ml)—used for K562/suspension cell lines • GUSB: VIC-PL, ThermoFisher 4326320E (Assay: Hs99999908 ml)—used for K562/suspension cell lines • PPIA: VIC-PL, ThermoFisher 4326316E (Assay: Hs99999904 ml)—used for A673/adherent cell lines
The A673 cell line was cultured in DMEM with 10% FBS. Cells were diluted with full growth media and plated in a 96-well plate (15,000 cells in 100 ul media per well). The plate was incubated at 37° C. with 5% CO2 for 24 hours to allow cells to adhere. An 11-point 3-fold serial dilution of the compounds was made in DMSO then diluted in media in an intermediate plate. Compounds were transferred from the intermediate plate to the cell plate with the top dose at a final concentration of 10 uM in the well. Final DMSO concentration was kept at or below 0.25%. The cell plate was returned to the incubator at 37° C. with 5% CO2 for an additional 24 hours.
The K562 cell line was cultured in IMDM with 10% FBS. For K562, cells were diluted with full growth media and plated in either a 96-well plate (50,000 cells in 50 uL media per well) or a 384-well plate (8,000-40,000 cells in 45 uL media per well). An 11-point 3-fold serial dilution of the compounds were made in DMSO then diluted in media in an intermediate plate. Compound was transferred from the intermediate plate to the cell plate with the top dose at a final concentration of 10 uM in the well. Final DMSO concentration was kept at or below 0.25%. Final volume was 100 uL for 96-well plate and 50 uL for 384-well plate. The cell plate was then placed in an incubator at 37° C. with 5% CO2 for 24 hours.
The cells were then gently washed with 50 uL-100 uL cold PBS before proceeding to addition of lysis buffer. 30 uL-50 uL of room temperature lysis buffer with DNAse I (and optionally RNAsin) was added to each well. Cells were shaken/mixed thoroughly at room temperature for 5-10 minutes for lysis to take place and then 3 uL-5 uL of room temperature stop solution was added and wells were shaken/mixed again. After 2-5 minutes, the cell lysate plate was transferred to ice for RT-qPCR reaction setup. The lysates could also be frozen at −80° C. for later use.
In some cases, a direct lysis buffer was used. An appropriate volume of 3X lysis buffer (10 mM Tris, 150 mM NaCl, 1.5%-2.5% Igepal and 0.1-1 U/uL RNAsin, pH 7.4) was directly added to either K562 or A673 cells in media and mixed by pipetting 3 times. The plates were then incubated at room temperature with shaking/rocking for 20-50 minutes to allow for lysis to take place. After this time, the cell lysate plate was transferred to ice to set up for the RT-qPCR reactions. The lysates could also be frozen at −80° C. for later use. […]

Where only a bound is given, the exact number is not on record here.

On to `Cc1nc2c(F)c(O)c(-c3ccc4nc(N5CC[C@H](NC6CC6)C5)ccc4n3)cc2o1` (single isomer, unassigned) [Compound 254, 6-{6-[3-(cyclopropylamino)pyrrolidin-1-yl]-1,5-naphthyridin-2-yl}-4-fluoro-2-methyl-1,3-benzoxazol-5-ol], for which the IC50 in the assay on HTT CJ mRNA, in the assay with Target C CJ mRNA, with SMN2 CJ mRNA and in the assay on HTT mRNA was less than 100 nM throughout. Also, in the assay with HTT mRNA, the AC50 is less than 100 nM.

On to `Cc1nc2c(F)c(O)c(-c3ccc4nc(N5CC[C@H](NC(C)(C)C)C5)ccc4n3)cc2o1` (single isomer, unassigned) [Compound 255, 6-{6-[3-(tert-butylamino)pyrrolidin-1-yl]-1,5-naphthyridin-2-yl}-4-fluoro-2-methyl-1,3-benzoxazol-5-ol], for which the IC50 in the assay with HTT CJ mRNA, in the assay on Target C CJ mRNA, with SMN2 CJ mRNA and in the assay on HTT mRNA was less than 100 nM in each case. Also, the AC50 in the assay with HTT mRNA was less than 100 nM.

For the compound `Cc1nc2c(F)c(O)c(-c3ccc4nc(N5CC[C@@H](NC(C)(C)C)C5)ccc4n3)cc2o1` (single isomer, unassigned) [Compound 256, 6-{6-[3-(tert-butylamino)pyrrolidin-1-yl]-1,5-naphthyridin-2-yl}-4-fluoro-2-methyl-1,3-benzoxazol-5-ol], the IC50 with HTT CJ mRNA, with Target C CJ mRNA, in the assay with SMN2 CJ mRNA and with HTT mRNA was less than 100 nM each time. Besides, the AC50 in the assay with HTT mRNA is less than 100 nM.

In the case of `Cc1nc2cc(O)c(-c3ccc4nc(N5CC[C@H](NC6(C)CC6)C5)ccc4n3)cc2o1` (single isomer, unassigned) [Compound 257, 2-methyl-6-(6-{3-[(1-methylcyclopropyl)amino]pyrrolidin-1-yl}-1,5-naphthyridin-2-yl)-1,3-benzoxazol-5-ol], the IC50 in the assay with HTT CJ mRNA, in the assay on Target C CJ mRNA, in the assay with SMN2 CJ mRNA and with HTT mRNA was less than 100 nM in each case. Also, in the assay on HTT mRNA, the AC50 was less than 100 nM.

For `Cc1nc2cc(O)c(-c3ccc4nc(N5CC[C@@H](NC6(C)CC6)C5)ccc4n3)cc2o1` (single isomer, unassigned) [Compound 258, 2-methyl-6-(6-{3-[(1-methylcyclopropyl)amino]pyrrolidin-1-yl}-1,5-naphthyridin-2-yl)-1,3-benzoxazol-5-ol], the IC50 in the assay with HTT CJ mRNA is less than 100 nM; in the assay with Target C CJ mRNA it was 100 to 1000 nM; in the assay with SMN2 CJ mRNA, less than 100 nM; in the assay on HTT mRNA it was less than 100 nM. Also, in the assay with HTT mRNA, the AC50 is less than 100 nM.

Turning to `Cc1c(O)c(-c2ccc3nc(N4CC[C@@H](NC5CC5)C4)ccc3n2)cc2cn(C)nc12` (single isomer, unassigned) [Compound 259], the IC50 in the assay with HTT CJ mRNA, with Target C CJ mRNA, in the assay on SMN2 CJ mRNA and in the assay on HTT mRNA was less than 100 nM throughout. In the assay with HTT mRNA, the AC50 was less than 100 nM.

For the compound `Cc1c(O)c(-c2ccc3nc(N4CC[C@H](NC5CC5)C4)ccc3n2)cc2cn(C)nc12` (single isomer, unassigned) [Compound 260], the IC50 with HTT CJ mRNA, in the assay with Target C CJ mRNA, in the assay on SMN2 CJ mRNA and with HTT mRNA was less than 100 nM each time. Besides, the AC50 in the assay with HTT mRNA was less than 100 nM.

On to `Cn1cc2cc(-c3ccc4nc(N5CC[C@H](NC6COC6)C5)ccc4n3)c(O)cc2n1` (stereo in doubt) [Compound 189], for which the IC50 in the assay with HTT CJ mRNA was 1000 to 10000 nM; with Target C CJ mRNA, 1000 to 10000 nM; with SMN2 CJ mRNA, less than 100 nM; in the assay with HTT mRNA, 1000 to 10000 nM. For the same compound, in the assay on HTT mRNA, the AC50 lay within 100 to 1000 nM.

As for `Cn1cc2cc(-c3ccc4nc(N5CC[C@@H](NCC(F)(F)F)C5)ccc4n3)c(O)cc2n1` (stereo in doubt) [Compound 245], the half-maximal inhibitory concentration (IC50) in the assay on HTT CJ mRNA was more than 10000 nM; in the assay on Target C CJ mRNA, more than 10000 nM; in the assay on SMN2 CJ mRNA, 1000 to 10000 nM; in the assay on HTT mRNA, more than 10000 nM. The AC50 with HTT mRNA was more than 10000 nM.
